Values quoted from earlier work, collected in patent publication US6495521B2, “Combination therapy method for treating chronic hepatitis B” (SciClone Pharmaceuticals, Inc., priority 1993, dated 2002).

Assays:
hepatitis B virus = conditions: patients with chronic active hepatitis B who received the peptide
[1] = individuals suffering from chronic active hepatitis B

In the case of “Ac-Ser-Asp-Ala-Ala-Val-Asp-Thr-Ser-Ser-Glu- Ile-Thr-Thr-Lys-Asp-Leu-Lys-Glu-Lys-Lys-Glu- Val-Val-Glu-Glu-Ala-Glu-Asn-OH (Ac-SDAAVDTSSEITTKDLKEKKEVVEEAEN-OH) [thymosin alpha-1, 28 amino acid peptide originally isolated from calf thymus thymosin fraction 5]”, the “patients who cleared hepatitis B virus DNA from serum and persistently tested negative for serum HBV DNA after treatment was terminated” value (hepatitis B virus) is listed as 75%, the lymphocyte counts [1] is listed as “increases in lymphocyte counts” and the production of gamma-interferon [1] is listed as “enhance production of gamma-interferon”.
